Here are results for 13 compounds from ChEMBL document CHEMBL5126532, “Synthetic approaches and structural diversity of triazolylbutanols derived from voriconazole in the antifungal drug development” (Eur J Med Chem, 2022).

For one data set, the system named is Aspergillus. Kind of data set: Antifungal activity against Aspergillus. Type of data set: functional.
The test system of data set [1] is Cryptococcus neoformans. The data set can be described thus: Antifungal activity against Cryptococcus neoformans. Type of data set: functional. As to conditions: Cryptococcus neoformans; read-out: MIC.
The next data set concerns Candida. The data set can be described thus: Antifungal activity against Candida spp. It counts as functional.
Data set [2] concerns Aspergillus fumigatus. The data set can be described thus: Antifungal activity against Aspergillus fumigatus assessed as inhibition of fungal growth incubated for 20 hrs. Type of data set: functional.
The test system of a further data set is Nakaseomyces glabratus. The data set can be described thus: Antifungal activity against Candida glabrata. Type of data set: functional.
Another data set concerns Pichia kudriavzevii. Kind of data set: Antifungal activity against Candida krusei. It counts as functional.
Another data set deals with Candida parapsilosis. The data set can be described thus: Antifungal activity against Candida parapsilosis. Type of data set: functional. As to conditions: Lodderomyces parapsilosis.
In data set [3] the test system is Candida albicans. The data set can be described thus: Antifungal activity against Candida albicans. It counts as functional.
The test system of a further data set is Candida tropicalis. The data set can be described thus: Antifungal activity against Candida tropicalis. Type of data set: functional.
For data set [4], the system named is Candida albicans. Kind of data set: Antifungal activity against Candida albicans TIMM1756 assessed as inhibition of fungal growth incubated for 20 hrs. It counts as functional.
For data set [5], the system named is Candida albicans. Kind of data set: In vivo antifungal activity against Candida albicans infected in CDF1 mouse treated po or iv immediately after infection measured on day 7. Type of data set: functional. As to conditions: 168 h, time 7 day.
The subject of data set [6] is Aspergillus fumigatus. Kind of data set: Antifungal activity against Aspergillus fumigatus TIMM1728 assessed as inhibition of fungal growth incubated for 20 hrs. It counts as functional.
Data set [7] concerns Cryptococcus neoformans. Kind of data set: Antifungal activity against Cryptococcus neoformans TIMM1855 assessed as inhibition of fungal growth incubated for 68 hrs. It counts as functional.
The test system of data set [8] is Aspergillus fumigatus. Kind of data set: In vivo antifungal activity against Aspergillus fumigatus infected in CDF1 mouse treated po 4 hrs after injection twice daily for 2 days measured on day 10. It counts as functional. Particulars: 48 h, time 2 day.
For data set [9], the system named is Candida albicans. Kind of data set: In vivo antifungal activity against Candida albicans infected in CDF1 mouse treated po or iv 2 hrs after infection twice daily for 2 days measured on day 10. It counts as functional. As to conditions: 240 h, time 10 day.
For data set [10], the system named is Cryptococcus neoformans. Kind of data set: Antifungal activity against Cryptococcus neoformans TIMM1740 assessed as inhibition of fungal growth incubated for 68 hrs. It counts as functional.
The subject of data set [11] is Candida albicans. Kind of data set: In vivo antifungal activity against Candida albicans infected in CDF1 mouse treated po 4 hrs after injection twice daily for 2 days measured on day 10. Particulars: 48 h, time 2 day. Type of data set: functional.
Data set [12] deals with Candida albicans. Kind of data set: Antifungal activity against Candida albicans assessed as inhibition of fungal growth incubated for 20 hrs. Type of data set: functional.
Data set [13] has as its system Aspergillus fumigatus. Kind of data set: Antifungal activity against Aspergillus fumigatus IFO6344 assessed as inhibition of fungal growth incubated for 20 hrs. It counts as functional.
In data set [14] the test system is Candida albicans. The data set can be described thus: Antifungal activity against Candida albicans TIMM1850 assessed as inhibition of fungal growth incubated for 20 hrs. It counts as functional.
A short description of data set [15]: Metabolic stability in ICR mouse plasma assessed as half life by measuring TAK-456 metabolite formation preincubated for 5 mins followed by compound addition measured at 5 to 120 mins by HPLC analysis. Type of data set: ADME, cell-free. As to conditions: time 5-120 min.
Data set [16] is described as follows: Metabolic stability in Sprague-Dawley rat plasma assessed as half life by measuring TAK-456 metabolite formation preincubated for 5 mins followed by compound addition measured at 5 to 120 mins by HPLC analysis. It counts as ADME, cell-free. Particulars: time 5-120 min.
The nature of data set [17]: Metabolic stability in human plasma assessed as half life by measuring TAK-456 metabolite formation preinubated for 5 mins followed by compound addition measured at 5 to 120 mins by HPLC analysis. Type of data set: ADME, cell-free. Particulars: time 5-120 min.
The test system of the next data set is Aspergillus sp. The data set can be described thus: Antifungal activity against Aspergillus sp. As to conditions: Aspergillus sp.; read-out: MIC. It counts as functional.
The subject of data set [18] is Aspergillus fumigatus. The data set can be described thus: Antifungal activity against Aspergillus fumigatus in 96-well microplate method. Type of data set: functional.
The subject of data set [19] is Nannizzia gypsea. The data set can be described thus: Potency index, ratio of MIC80 for FCZ to ratio of MIC80 for test compound against antifungal activity in Microsporum gypseum. It counts as functional.
In data set [20] the test system is Nannizzia gypsea. Kind of data set: Antifungal activity against Microsporum gypseum. Type of data set: functional.
In data set [21] the test system is Candida albicans. Kind of data set: Antifungal activity against FCZ-resistant Candida albicans 103. It counts as functional.
In data set [22] the test system is Candida albicans. The data set can be described thus: Antifungal activity against FCZ-resistant Candida albicans 100. It counts as functional.
Data set [23] deals with Aspergillus fumigatus. Kind of data set: Antifungal activity against Aspergillus fumigatus. Type of data set: functional.

≈ marks a conversion by molar mass, not a printed value.

One may read the MIC as the least concentration at which growth counts as inhibited. Usually ED50 stands for the midpoint of the dose-response relation. The low end stands for an effect at a small dose, the high end for a need for a large dose. What is called MIC80 is an inhibitory concentration at the 80% level, which refers to growth in some studies and to a panel of isolates in others.

`C[C@@H](C[C@H]1CO[C@H](/C=C/C=C/c2ccc(C(F)(F)F)cc2)OC1)[C@](O)(Cn1cncn1)c1ccc(F)cc1F` returned an MIC with Aspergillus of no more than 0.5 µg/mL.

As to `C[C@@H](N1CCn2nc(-c3ccc(C#N)nc3)nc2C1)[C@](O)(Cn1cncn1)c1ccc(F)cc1F`, the MIC in the data set with Aspergillus came out at 1 µg/mL (≈ 2.09 µM); with Cryptococcus neoformans [1] it was 0.0078 µg/mL (≈ 0.0163 µM); with Candida, 0.0078 µg/mL (≈ 0.0163 µM).

As for `C[C@@H](N1Cc2cc(Br)sc2C1=O)[C@](O)(Cn1cncn1)c1ccc(F)cc1F`, in the data set on Aspergillus fumigatus [2], the MIC came out at 0.25 µg/mL (≈ 0.533 µM).

As for `C[C@H](n1nnnc1CCN1CCN(c2cccc(C(F)(F)F)c2)CC1)[C@](O)(Cn1cncn1)c1ccc(F)cc1F`, the MIC against Nakaseomyces glabratus came to 0.5 µg/mL (≈ 0.866 µM); against Pichia kudriavzevii, 0.5 µg/mL (≈ 0.866 µM); with Candida parapsilosis, 0.25 µg/mL (≈ 0.433 µM); in the data set with Candida albicans [3] it was 0.12 µg/mL (≈ 0.208 µM); against Candida tropicalis it was 0.25 µg/mL (≈ 0.433 µM).

As to `C[C@@H](N1CCN(c2ccc(-n3cnnn3)cc2)C1=O)[C@](O)(Cn1cncn1)c1ccc(F)cc1F`, the MIC in the data set with Candida albicans [4] was no more than 0.001 µg/mL; with Aspergillus fumigatus [6] it was 0.25 µg/mL (≈ 0.519 µM); in the data set on Cryptococcus neoformans [7], 0.016 µg/mL (≈ 0.0332 µM); with Cryptococcus neoformans [10] it was 0.016 µg/mL (≈ 0.0332 µM); in the data set with Candida albicans [12], 0.16 µg/mL (≈ 0.332 µM); with Aspergillus fumigatus [13], 0.25 µg/mL (≈ 0.519 µM). For the same compound, in the data set on Candida albicans [14], the MIC is no more than 0.001 µg/mL. Moreover, the ED50 in the data set on Candida albicans [5] turned out to be 0.77 mg/kg; in the data set on Aspergillus fumigatus [8], 4 mg/kg; in the data set on Candida albicans [9], 3.56 mg/kg; with Candida albicans [11], 0.18 mg/kg.

Consider `CC(=O)OC[n+]1cnn(C[C@](O)(c2ccc(F)cc2F)[C@@H](C)N2CCN(c3ccc(-n4cnnn4)cc3)C2=O)c1.[Cl-]`, for which the values for the ED50 in the data set with Candida albicans [5] and in the data set with Candida albicans [9] were 0.62 mg/kg and 4.49 mg/kg, respectively. For the same compound, the t1/2 in data set [15], in data set [16] and in data set [17] was 5 min throughout. Also, the MIC with Candida albicans [12] was found to be 0.016 µg/mL.

For the compound `C[C@@H](N1Cc2nc(-c3ccc(F)cc3)sc2C1=O)[C@](O)(Cn1cncn1)c1ccc(F)cc1F`, the MIC in the data set on Cryptococcus neoformans [1] amounted to 0.0312 µg/mL (≈ 0.0643 µM); in the data set on Aspergillus sp., 4 µg/mL (≈ 8.24 µM); with Candida, 0.0156 µg/mL (≈ 0.0321 µM).

In the data set with Aspergillus fumigatus [18], `C[C@@H](N1Cc2sc(-c3ccc(C#N)cn3)nc2C1=O)[C@](O)(Cn1cncn1)c1ccc(F)cc1F` returned an MIC80 of 4 µg/mL (≈ 8.11 µM).

For `C[C@@H](OCc1cc(-c2ccc(F)cc2)no1)[C@](O)(Cn1cncn1)c1ccc(F)cc1F`, the Ratio with Nannizzia gypsea [19] is recorded as 64. Besides, the MIC80 against Nannizzia gypsea [20] was 0.5 µg/mL (≈ 1.13 µM); in the data set on Candida albicans [21], 8 µg/mL (≈ 18 µM); in the data set with Candida parapsilosis, 0.0313 µg/mL (≈ 0.0704 µM); in the data set with Candida albicans [22], 8 µg/mL (≈ 18 µM); in the data set on Candida albicans [3], 0.0313 µg/mL (≈ 0.0704 µM); against Aspergillus fumigatus [23], 4 µg/mL (≈ 9 µM).

As to `C[C@@H](N1CC(O)N(c2ccc(-n3cnnn3)cc2)C1=O)[C@](O)(Cn1cncn1)c1ccc(F)cc1F` (some centres undefined), the figures for the MIC in the data set on Cryptococcus neoformans [1], in the data set on Aspergillus sp. and against Candida were greater than 16 µg/mL, greater than 64 µg/mL and no less than 4 µg/mL, respectively.

Consider `C[C@@H](N1CCN(c2ccc(-n3ccnn3)cc2)C1=O)[C@](O)(Cn1cncn1)c1ccc(F)cc1F`, for which the MIC in the data set on Candida albicans [4] was no more than 0.001 µg/mL; in the data set on Aspergillus fumigatus [6], 0.25 µg/mL (≈ 0.52 µM); in the data set with Cryptococcus neoformans [7], 0.016 µg/mL (≈ 0.0333 µM); in the data set with Cryptococcus neoformans [10], 0.016 µg/mL (≈ 0.0333 µM); with Aspergillus fumigatus [13], 0.25 µg/mL (≈ 0.52 µM); with Candida albicans [14] it was no more than 0.001 µg/mL. Further, the ED50 was 4 mg/kg in the data set on Aspergillus fumigatus [8] and 0.18 mg/kg in the data set on Candida albicans [11].

As for `C[C@@H](N1Cc2sc(Br)nc2C1=O)[C@](O)(Cn1cncn1)c1ccc(F)cc1F`, the MIC80 in the data set with Aspergillus fumigatus [18] was 4 µg/mL (≈ 8.51 µM). Besides, the figures for the MIC in the data set with Cryptococcus neoformans [1], in the data set on Aspergillus sp. and against Candida were 0.125 µg/mL (≈ 0.266 µM), 16 µg/mL (≈ 34 µM) and 0.0625 µg/mL (≈ 0.133 µM), respectively.

Consider `C[C@@H](N1Cc2sc(-c3cncnc3)nc2C1=O)[C@](O)(Cn1cncn1)c1ccc(F)cc1F`, for which the MIC80 in the data set with Aspergillus fumigatus [18] came out at 4 µg/mL (≈ 8.52 µM).
